In patent US11945813B2, “5-substituted 4-amino-1H-benzo[c][1,2,6]thiadiazine 2,2-dioxides and formulations and uses thereof” (Firmenich Incorporated, priority 2018, dated 2024):

Biological target: T1, T1R2/T1R3 taste receptor (Homo sapiens, UniProt Q8TE23)
T1 sequence (Q8TE23 20-839): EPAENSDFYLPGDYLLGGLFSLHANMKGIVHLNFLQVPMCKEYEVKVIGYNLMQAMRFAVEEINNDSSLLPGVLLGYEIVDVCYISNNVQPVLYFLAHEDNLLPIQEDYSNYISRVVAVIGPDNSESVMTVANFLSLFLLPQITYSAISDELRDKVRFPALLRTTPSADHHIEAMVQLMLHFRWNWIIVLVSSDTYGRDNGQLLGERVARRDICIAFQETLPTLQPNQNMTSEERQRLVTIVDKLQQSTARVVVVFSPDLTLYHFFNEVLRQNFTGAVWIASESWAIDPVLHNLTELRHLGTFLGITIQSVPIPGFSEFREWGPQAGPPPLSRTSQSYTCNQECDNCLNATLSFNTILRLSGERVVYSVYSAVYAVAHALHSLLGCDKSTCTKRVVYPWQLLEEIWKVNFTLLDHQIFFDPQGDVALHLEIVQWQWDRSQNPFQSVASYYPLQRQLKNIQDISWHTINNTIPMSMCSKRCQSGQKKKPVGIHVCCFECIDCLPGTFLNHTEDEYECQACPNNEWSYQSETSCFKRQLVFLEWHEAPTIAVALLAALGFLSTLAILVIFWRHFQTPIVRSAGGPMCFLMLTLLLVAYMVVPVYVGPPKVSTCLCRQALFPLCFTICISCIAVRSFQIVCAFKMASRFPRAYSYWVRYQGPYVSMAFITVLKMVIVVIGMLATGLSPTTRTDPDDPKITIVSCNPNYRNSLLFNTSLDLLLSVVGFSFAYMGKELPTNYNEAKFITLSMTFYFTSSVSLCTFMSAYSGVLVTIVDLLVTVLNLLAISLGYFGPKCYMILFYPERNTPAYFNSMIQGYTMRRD
T1 sequence (Q7RTX0 21-852 partner): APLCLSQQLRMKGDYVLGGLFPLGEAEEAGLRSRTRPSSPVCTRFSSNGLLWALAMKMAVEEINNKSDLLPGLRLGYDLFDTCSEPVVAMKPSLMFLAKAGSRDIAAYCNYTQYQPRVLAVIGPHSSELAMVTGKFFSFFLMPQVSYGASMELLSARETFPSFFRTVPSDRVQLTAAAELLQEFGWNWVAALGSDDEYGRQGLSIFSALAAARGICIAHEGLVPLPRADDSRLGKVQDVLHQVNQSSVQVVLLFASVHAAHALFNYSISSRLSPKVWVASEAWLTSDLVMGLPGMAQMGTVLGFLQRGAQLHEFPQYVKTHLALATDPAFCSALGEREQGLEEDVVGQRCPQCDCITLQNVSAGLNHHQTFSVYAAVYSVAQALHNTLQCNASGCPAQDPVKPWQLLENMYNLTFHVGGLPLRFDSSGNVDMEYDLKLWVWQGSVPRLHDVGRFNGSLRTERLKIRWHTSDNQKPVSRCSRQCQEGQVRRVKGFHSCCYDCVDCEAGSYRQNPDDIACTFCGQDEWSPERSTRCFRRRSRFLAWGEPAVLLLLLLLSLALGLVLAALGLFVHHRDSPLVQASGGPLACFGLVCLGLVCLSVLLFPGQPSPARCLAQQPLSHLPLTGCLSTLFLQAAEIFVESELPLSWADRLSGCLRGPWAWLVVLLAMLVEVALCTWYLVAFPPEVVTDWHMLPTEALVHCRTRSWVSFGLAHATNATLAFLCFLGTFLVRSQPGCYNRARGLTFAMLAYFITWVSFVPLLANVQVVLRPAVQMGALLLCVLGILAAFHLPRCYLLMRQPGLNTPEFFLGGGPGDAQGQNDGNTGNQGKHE
Experiment: Receptor-based assay: sweetener EC50 alone and with test compound (enhancement ratio)
Assay type: cell-based
Settings: for Fructose Enhancement EC50 Ratio: sweetener fructose; for Sucralose Enhancement EC50 Ratio: sweetener sucralose; for Sucrose Enhancement EC50 Ratio: sweetener sucrose
Description: Potencies (EC50 values) for the sweeteners sucrose, sucralose, and fructose were measured against the T1R2/T1R3 taste receptor. EC50 was determined using the sweetener alone and in the presence of 3 μM, 10 μM, or 50 μM of test compound. EC50 ratios were calculated by the ratio of potency with and without the test compound. An “A” value indicates an enhancement ratio of greater than 20. A “B” value indicates an enhancement ratio from 10 to 20. A “C” value indicates an enhancement ratio greater than 1 and less than 10.

SMILES: NC1=NS(=O)(=O)Nc2cccc(OC[C@H]3CCCN(c4cccc(C(=O)NC5CC5)n4)C3)c21 [Compound 400, (S)-6-(3-(((4-amino-2,2-dioxido-1H-benzo[c][1,2,6]thiadiazin-5-yl)oxy)methyl)piperidin-1-yl)-N-cyclopropylpicolinamide]
- Fructose Enhancement EC50 Ratio (10 μM test compound): C (A “C” value indicates an enhancement ratio greater than 1 and less than 10)
- Fructose Enhancement EC50 Ratio (50 μM test compound): C (A “C” value indicates an enhancement ratio greater than 1 and less than 10)
- Sucralose Enhancement EC50 Ratio (10 μM test compound): A (An “A” value indicates an enhancement ratio of greater than 20)
- Sucralose Enhancement EC50 Ratio (50 μM test compound): A (An “A” value indicates an enhancement ratio of greater than 20)
- Sucrose Enhancement EC50 Ratio (3 μM test compound): C (A “C” value indicates an enhancement ratio greater than 1 and less than 10)
- Sucrose Enhancement EC50 Ratio (10 μM test compound): C (A “C” value indicates an enhancement ratio greater than 1 and less than 10)
- Sucrose Enhancement EC50 Ratio (50 μM test compound): B (A “B” value indicates an enhancement ratio from 10 to 20)

SMILES: CNC(=O)c1cccc(N2CCC[C@H](COc3cccc4c3C(N)=NS(=O)(=O)N4)C2)n1 [Compound 401]
- Sucralose Enhancement EC50 Ratio (10 μM test compound): A (An “A” value indicates an enhancement ratio of greater than 20)
- Sucralose Enhancement EC50 Ratio (50 μM test compound): A (An “A” value indicates an enhancement ratio of greater than 20)
- Sucrose Enhancement EC50 Ratio (3 μM test compound): C (A “C” value indicates an enhancement ratio greater than 1 and less than 10)
- Sucrose Enhancement EC50 Ratio (10 μM test compound): B (A “B” value indicates an enhancement ratio from 10 to 20)
- Sucrose Enhancement EC50 Ratio (50 μM test compound): C (A “C” value indicates an enhancement ratio greater than 1 and less than 10)

SMILES: CCNC(=O)c1cccc(N2CCC[C@H](COc3cccc4c3C(N)=NS(=O)(=O)N4)C2)n1 [Compound 402]
- Sucralose Enhancement EC50 Ratio (10 μM test compound): A (An “A” value indicates an enhancement ratio of greater than 20)
- Sucralose Enhancement EC50 Ratio (50 μM test compound): A (An “A” value indicates an enhancement ratio of greater than 20)
- Sucrose Enhancement EC50 Ratio (3 μM test compound): C (A “C” value indicates an enhancement ratio greater than 1 and less than 10)
- Sucrose Enhancement EC50 Ratio (10 μM test compound): C (A “C” value indicates an enhancement ratio greater than 1 and less than 10)
- Sucrose Enhancement EC50 Ratio (50 μM test compound): C (A “C” value indicates an enhancement ratio greater than 1 and less than 10)

SMILES: CCCNC(=O)c1cccc(N2CCC[C@H](COc3cccc4c3C(N)=NS(=O)(=O)N4)C2)n1 [Compound 403]
- Fructose Enhancement EC50 Ratio (10 μM test compound): C (A “C” value indicates an enhancement ratio greater than 1 and less than 10)
- Sucralose Enhancement EC50 Ratio (10 μM test compound): A (An “A” value indicates an enhancement ratio of greater than 20)
- Sucralose Enhancement EC50 Ratio (50 μM test compound): A (An “A” value indicates an enhancement ratio of greater than 20)
- Sucrose Enhancement EC50 Ratio (3 μM test compound): C (A “C” value indicates an enhancement ratio greater than 1 and less than 10)
- Sucrose Enhancement EC50 Ratio (10 μM test compound): C (A “C” value indicates an enhancement ratio greater than 1 and less than 10)
- Sucrose Enhancement EC50 Ratio (50 μM test compound): C (A “C” value indicates an enhancement ratio greater than 1 and less than 10)

SMILES: COCCNC(=O)c1cccc(N2CCC[C@H](COc3cccc4c3C(N)=NS(=O)(=O)N4)C2)n1 [Compound 405]
- Fructose Enhancement EC50 Ratio (10 μM test compound): C (A “C” value indicates an enhancement ratio greater than 1 and less than 10)
- Sucralose Enhancement EC50 Ratio (10 μM test compound): B (A “B” value indicates an enhancement ratio from 10 to 20)
- Sucrose Enhancement EC50 Ratio (3 μM test compound): C (A “C” value indicates an enhancement ratio greater than 1 and less than 10)
- Sucrose Enhancement EC50 Ratio (10 μM test compound): C (A “C” value indicates an enhancement ratio greater than 1 and less than 10)

SMILES: CN(C)CCNC(=O)c1cccc(N2CCC[C@H](COc3cccc4c3C(N)=NS(=O)(=O)N4)C2)n1 [Compound 406]
- Fructose Enhancement EC50 Ratio (10 μM test compound): C (A “C” value indicates an enhancement ratio greater than 1 and less than 10)
- Fructose Enhancement EC50 Ratio (50 μM test compound): C (A “C” value indicates an enhancement ratio greater than 1 and less than 10)
- Sucralose Enhancement EC50 Ratio (10 μM test compound): A (An “A” value indicates an enhancement ratio of greater than 20)
- Sucrose Enhancement EC50 Ratio (3 μM test compound): C (A “C” value indicates an enhancement ratio greater than 1 and less than 10)
- Sucrose Enhancement EC50 Ratio (10 μM test compound): B (A “B” value indicates an enhancement ratio from 10 to 20)
- Sucrose Enhancement EC50 Ratio (50 μM test compound): B (A “B” value indicates an enhancement ratio from 10 to 20)

SMILES: CC(C)NC(=O)c1cccc(N2CCC[C@H](COc3cccc4c3C(N)=NS(=O)(=O)N4)C2)n1 [Compound 407]
- Fructose Enhancement EC50 Ratio (10 μM test compound): C (A “C” value indicates an enhancement ratio greater than 1 and less than 10)
- Fructose Enhancement EC50 Ratio (50 μM test compound): C (A “C” value indicates an enhancement ratio greater than 1 and less than 10)
- Sucrose Enhancement EC50 Ratio (10 μM test compound): B (A “B” value indicates an enhancement ratio from 10 to 20)
- Sucrose Enhancement EC50 Ratio (50 μM test compound): C (A “C” value indicates an enhancement ratio greater than 1 and less than 10)

SMILES: NC1=NS(=O)(=O)Nc2cccc(OC[C@H]3CCCN(c4cccc(C(=O)NC5CCCC5)n4)C3)c21 [Compound 408]
- Fructose Enhancement EC50 Ratio (50 μM test compound): C (A “C” value indicates an enhancement ratio greater than 1 and less than 10)
- Sucralose Enhancement EC50 Ratio (10 μM test compound): A (An “A” value indicates an enhancement ratio of greater than 20)
- Sucralose Enhancement EC50 Ratio (50 μM test compound): A (An “A” value indicates an enhancement ratio of greater than 20)
- Sucrose Enhancement EC50 Ratio (3 μM test compound): C (A “C” value indicates an enhancement ratio greater than 1 and less than 10)
- Sucrose Enhancement EC50 Ratio (10 μM test compound): B (A “B” value indicates an enhancement ratio from 10 to 20)
- Sucrose Enhancement EC50 Ratio (50 μM test compound): B (A “B” value indicates an enhancement ratio from 10 to 20)

SMILES: NC1=NS(=O)(=O)Nc2cccc(OC[C@H]3CCCN(c4cccc(C(=O)NC5CCCCC5)n4)C3)c21 [Compound 409]
- Sucralose Enhancement EC50 Ratio (10 μM test compound): A (An “A” value indicates an enhancement ratio of greater than 20)
- Sucralose Enhancement EC50 Ratio (50 μM test compound): A (An “A” value indicates an enhancement ratio of greater than 20)
- Sucrose Enhancement EC50 Ratio (3 μM test compound): C (A “C” value indicates an enhancement ratio greater than 1 and less than 10)
- Sucrose Enhancement EC50 Ratio (10 μM test compound): C (A “C” value indicates an enhancement ratio greater than 1 and less than 10)
- Sucrose Enhancement EC50 Ratio (50 μM test compound): B (A “B” value indicates an enhancement ratio from 10 to 20)

SMILES: CN(C)C(=O)c1cccc(N2CCC[C@H](COc3cccc4c3C(N)=NS(=O)(=O)N4)C2)n1 [Compound 410]
- Fructose Enhancement EC50 Ratio (50 μM test compound): C (A “C” value indicates an enhancement ratio greater than 1 and less than 10)
- Sucralose Enhancement EC50 Ratio (10 μM test compound): B (A “B” value indicates an enhancement ratio from 10 to 20)
- Sucralose Enhancement EC50 Ratio (50 μM test compound): A (An “A” value indicates an enhancement ratio of greater than 20)
- Sucrose Enhancement EC50 Ratio (3 μM test compound): C (A “C” value indicates an enhancement ratio greater than 1 and less than 10)
- Sucrose Enhancement EC50 Ratio (10 μM test compound): B (A “B” value indicates an enhancement ratio from 10 to 20)
- Sucrose Enhancement EC50 Ratio (50 μM test compound): B (A “B” value indicates an enhancement ratio from 10 to 20)

SMILES: CCN(CC)C(=O)c1cccc(N2CCC[C@H](COc3cccc4c3C(N)=NS(=O)(=O)N4)C2)n1 [Compound 411]
- Sucralose Enhancement EC50 Ratio (10 μM test compound): B (A “B” value indicates an enhancement ratio from 10 to 20)
- Sucrose Enhancement EC50 Ratio (3 μM test compound): C (A “C” value indicates an enhancement ratio greater than 1 and less than 10)
- Sucrose Enhancement EC50 Ratio (10 μM test compound): C (A “C” value indicates an enhancement ratio greater than 1 and less than 10)
